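In this assay, cells in 96-well plates receive the compound at five concentrations for 48 hours. Endpoints are linearly interpolated between the surrounding concentrations. GI50 is the concentration that inhibits growth by half. TGI marks complete inhibition of growth.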
Experiments:
Test in all cases: inhibition of tumour cell growth, NCI panel, 48 h
HCC-2998 colon = test system: HCC-2998 colon
MALME-3M melanoma = test system: MALME-3M melanoma
CCRF-CEM leukemia = test system: CCRF-CEM leukemia
HCT-116 colon = test system: HCT-116 colon
KM12 colon = test system: KM12 colon
UACC-257 melanoma = test system: UACC-257 melanoma
UACC-62 melanoma = test system: UACC-62 melanoma
HCT-15 colon = test system: HCT-15 colon
NCI-H226 lung = test system: NCI-H226 lung
TK-10 renal = test system: TK-10 renal

| Structure (SMILES) | GI50 (HCC-2998 colon) [µM] | TGI (HCC-2998 colon) [µM] | GI50 (MALME-3M melanoma) [µM] | TGI (MALME-3M melanoma) [µM] | GI50 (CCRF-CEM leukemia) [µM] | TGI (CCRF-CEM leukemia) [µM] | GI50 (HCT-116 colon) [µM] | TGI (HCT-116 colon) [µM] | GI50 (KM12 colon) [µM] | TGI (KM12 colon) [µM] | GI50 (UACC-257 melanoma) [µM] | TGI (UACC-257 melanoma) [µM] | GI50 (UACC-62 melanoma) [µM] | TGI (UACC-62 melanoma) [µM] | GI50 (HCT-15 colon) [µM] | TGI (HCT-15 colon) [µM] | GI50 (NCI-H226 lung) [µM] | TGI (NCI-H226 lung) [µM] | TGI (TK-10 renal) [µM] | GI50 (TK-10 renal) [µM] |
| --- | --- | --- | --- | --- | --- | --- | --- | --- | --- | --- | --- | --- | --- | --- | --- | --- | --- | --- | --- | --- |
| COc1cccc(NCc2nnc(Nc3ccc(Cl)cc3)c3ccccc23)c1 | 3.44 | 8.79 | 1.22 | 6.23 | 2.73 | 13.4 | 0.881 | 4.2 | 0.131 | 6.52 | 2.04 | 5.28 | 1 | 5.76 | 1.78 | 7.56 | 0.956 | 6.82 | – | – |
| CC(=O)SCCC1c2[nH]c3ccccc3c2CCN1O (centres undefined) | – | > 100 | – | > 100 | – | > 100 | – | – | – | > 100 | – | > 100 | – | > 100 | – | > 100 | – | – | > 100 | – |
| CC(C)=[CH][Sb]([Br])([CH]=C(C)C)([CH]=C(C)C)[CH]=C(C)C | 26 | > 100 | 5.28 | > 100 | 4.8 | > 100 | 13.9 | 60.4 | 3.63 | 87.9 | 4.87 | > 100 | 11.1 | > 100 | > 100 | > 100 | – | – | > 100 | 34.9 |
| COc1cc([N+](=O)[O-])ccc1NC(=O)C(F)(F)F | – | – | – | – | – | > 100 | – | > 100 | – | > 100 | – | > 100 | – | > 100 | – | > 100 | – | > 100 | > 100 | – |
| N#CCCN(c1ccc(/C=C2\N=C(c3ccc(Cl)cc3)OC2=O)cc1)S(=O)(=O)c1ccccc1 | – | > 100 | – | – | – | – | – | > 100 | – | > 100 | – | > 100 | – | > 100 | – | > 100 | – | > 100 | > 100 | – |
| COc1cc2c3c(n(CCCCl)c(=O)c2cc1OC)-c1ccccc1C3=O | > 100 | > 100 | – | – | 0.71 | > 100 | 2.46 | > 100 | > 100 | > 100 | 10.2 | > 100 | 12.4 | 54.9 | > 100 | > 100 | – | – | 68.6 | 19.6 |
| COc1cc(-c2c(C#N)c(N)n3c(nc4ccccc43)c2C#N)cc(Br)c1OC | > 100 | > 100 | – | – | – | – | 4.77 | > 100 | – | – | > 100 | > 100 | 28.3 | > 100 | > 100 | > 100 | > 100 | > 100 | – | – |
| COc1ccc2cc(C(=O)/C=C/c3cccc(OC)c3OC)ccc2c1 | 14.2 | 27.2 | 10.4 | 29.4 | 5.46 | > 100 | 3.62 | 13.3 | 13 | 33.1 | 15 | 29.8 | 2.77 | 11 | 3.53 | 15.4 | – | – | 65.1 | 25.3 |
| CCCCC/C=C/C/C=C/CCCCCCCC1=NC(C)(C)CN1C(C)C | 1.67 | 3.06 | – | – | – | – | – | – | 1.61 | 2.96 | 1.72 | 3.2 | 1.69 | 3.12 | 1.63 | 3.17 | – | – | 3.04 | 1.67 |
| N#CCCN(CCC#N)c1ccc(/C=C2\N=C(CN3C(=O)c4ccccc4C3=O)OC2=O)cc1 | – | > 100 | – | > 100 | – | – | – | > 100 | – | > 100 | – | > 100 | – | > 100 | – | > 100 | – | > 100 | – | – |
| Cc1cc(C)cc(Nc2cc(C)nc3nc(C(F)(F)F)nn23)c1 | > 100 | > 100 | > 100 | > 100 | – | – | 85 | > 100 | > 100 | > 100 | – | – | > 100 | > 100 | > 100 | > 100 | > 100 | > 100 | > 100 | > 100 |
| CSc1ccc(/C=C2/C[N+](C)(C)C/C(=C/c3ccc(SC)cc3)C2=O)cc1 | – | 34 | – | 27.5 | – | 31.5 | – | – | – | 15.9 | – | 37.8 | – | – | – | > 100 | – | 72.5 | > 100 | – |
| CC(C)=CC(=O)N1CCN(C(=O)C=C(C)C)CC1 | – | > 100 | – | – | – | > 100 | – | > 100 | – | > 100 | – | > 100 | – | > 100 | – | > 100 | – | – | > 100 | – |
| NCCCNCCSSCCCCS(=O)O | – | > 100 | – | 49.2 | – | – | – | 70.2 | – | – | – | 78.5 | – | 34.8 | – | > 100 | – | > 100 | > 100 | – |
| O=C(CC(=O)N1N=C(c2ccccc2)C(N=Nc2ccc(Cl)cc2)C1=O)Nc1ccccc1Cl (centres undefined) | – | > 100 | – | – | – | – | – | > 100 | – | > 100 | – | – | – | 53.3 | – | > 100 | – | 62.6 | 38.1 | – |
| Cc1c2c(nn1-c1ccc(S(=O)(=O)/N=C3\SCC(=O)N3C(=O)c3ccccc3)cc1)-c1ccccc1CC2 | 98.6 | > 100 | – | – | 21 | 49 | 26.4 | 58.8 | 51.4 | > 100 | 92.5 | > 100 | 18.7 | 37.6 | 22.4 | 49.5 | 24 | 56.4 | > 100 | 98 |
| N#C/C(C(=S)Nc1ccccc1)=C1/NN=C2c3ccccc3C(=O)NN21 | 24.1 | > 100 | 13.9 | > 100 | – | – | 29.2 | > 100 | 16.1 | 58.4 | 39 | > 100 | 31.5 | > 100 | 27.6 | > 100 | 49.6 | > 100 | 50.4 | 21.2 |
| CCCCn1c(-c2ccc(C(=O)O/N=C(\N)c3ccc(OC)cc3)cc2)nc(-c2ccccc2)c1-c1ccccc1 | – | – | – | – | 0.556 | 2.76 | – | – | 2.91 | > 100 | 3.61 | > 100 | 1.88 | 4.58 | – | – | – | – | 3.38 | 1.76 |

Source: PubChem BioAssay (NCI)
